{"source": "patent US12410152B2", "about": "“Oxazole and thioazole-type cullin ring ubiquitin ligase compounds and uses thereof” (Proxygen GmbH, priority 2019, dated 2025)", "key": {"KBM7 CUL4Amut cells": {"test_system": "KBM7 CUL4Amut cells", "experiment": "Cell viability assay, KBM7 CUL4A mutant", "assay_type": "cell-based, human", "details": "Table 2, data of FIG. 6; 3-day treatment; read-out: LC50 CUL4Amut", "protocol": "KBM7 cells with the specified genetic backgrounds were grown in IMDM supplemented with 10% FBS and 1% penicillin/streptomycin (pen/strep). AsPC1, HCT116, NCI-H446 and 293T cells were grown in DMEM 10% FBS and 1% pen/strep. MV4; 11, Jurkat and Be (2) C cells were grown in RPMI 10% FBS 1% pen/strep. KBM7, AsPC1 and HCT116 cells expressing Cas9 were generated using the plasmid Lenti_Cas9_Blasti (Addgene #52962). The lentiviral plasmid lentiGuide-Puro (Addgene #52963) was used to express sgRNAs against the genes UBE2M (in KBM7-Cas9, AsPC1-Cas9 and HCT116-Cas9 cells), UBE2G1 (in KBM7-Cas9 cells) and […] (in KBM7-Cas9 cells). The lentiviral plasmid lentiGuide-Puro-IRES-mCherry (modified from Addgene #52963) was used to express sgRNAs against CUL4A (in KBM7-Cas9 cells). The lentiviral plasmid pLenti-PGK-Hygro-DEST-UBE2M was generated by Gateway cloning (empty destination vector Addgene #19066), and used to generate UBE2M^resc KBM7 cells.\nValidating the previous results, a strong enrichment for cells transduced with UBE2Mtargeting sgRNAs was detected. […] The fact that Rbx1 was not detected in the initial experiment is likely explained by the fact that prolonged loss of RBX1 function is detrimental to cellular fitness. […] To understand if the tested compounds were uniquely dependent on CUL4B over CUL4A, a differential drug efficacy was assessed in dose ranging viability assays in KBM7 WT cells and isogenic clones deficient in either CUL4A, CUL4B, and UBE2G1. […]\nKBM7^WT, mutant KBM7 clones (UBE2M^mut, UBE2M^resc, UBE2G1^mut CUL4A^mut, CUL4B^mut), and 3-day doxycycline pretreated KBM7^iCas9_sgDDB1 cells were seeded at a cell density of 50,000 cells/mL in 96-well plates with DMSO or drug, in triplicates. […] Cells were treated for 3 days, after which cell viability was assessed according to manufacturer's protocol (CellTiter Glo, Promega G7570). Survival curves and EC50 values were calculated by best-fit analysis of the log 10 drug concentration to fold change of drug-treated cells over DMSO-treated cells. […]"}, "[1]": {"test_system": "T1, cyclin K (CCNK) (Homo sapiens)", "T1 construct": "endogenous in cells; host or cells: KBM7 cells (WT and UBE2M/CUL4B/UBE2G1 mutant clones)", "T1 sequence (O75909 whole entry partner)": "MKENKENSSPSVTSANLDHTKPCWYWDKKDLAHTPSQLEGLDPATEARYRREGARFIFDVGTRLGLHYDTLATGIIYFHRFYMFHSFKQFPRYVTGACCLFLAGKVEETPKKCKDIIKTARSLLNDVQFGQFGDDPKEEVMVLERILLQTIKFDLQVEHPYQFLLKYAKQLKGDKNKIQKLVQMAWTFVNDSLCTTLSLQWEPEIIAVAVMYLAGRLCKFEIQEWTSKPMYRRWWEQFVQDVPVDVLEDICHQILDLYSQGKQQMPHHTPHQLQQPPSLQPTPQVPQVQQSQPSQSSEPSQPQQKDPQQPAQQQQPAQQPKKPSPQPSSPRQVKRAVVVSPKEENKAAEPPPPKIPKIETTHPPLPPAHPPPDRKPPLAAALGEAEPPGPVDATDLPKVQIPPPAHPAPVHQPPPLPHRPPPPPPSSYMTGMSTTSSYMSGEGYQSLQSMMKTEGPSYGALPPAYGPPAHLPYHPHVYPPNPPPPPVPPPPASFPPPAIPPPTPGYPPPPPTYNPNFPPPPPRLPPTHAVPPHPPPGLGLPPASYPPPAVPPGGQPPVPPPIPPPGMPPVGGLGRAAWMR", "T1 sequence (Q9NYV4 whole entry, further chain)": "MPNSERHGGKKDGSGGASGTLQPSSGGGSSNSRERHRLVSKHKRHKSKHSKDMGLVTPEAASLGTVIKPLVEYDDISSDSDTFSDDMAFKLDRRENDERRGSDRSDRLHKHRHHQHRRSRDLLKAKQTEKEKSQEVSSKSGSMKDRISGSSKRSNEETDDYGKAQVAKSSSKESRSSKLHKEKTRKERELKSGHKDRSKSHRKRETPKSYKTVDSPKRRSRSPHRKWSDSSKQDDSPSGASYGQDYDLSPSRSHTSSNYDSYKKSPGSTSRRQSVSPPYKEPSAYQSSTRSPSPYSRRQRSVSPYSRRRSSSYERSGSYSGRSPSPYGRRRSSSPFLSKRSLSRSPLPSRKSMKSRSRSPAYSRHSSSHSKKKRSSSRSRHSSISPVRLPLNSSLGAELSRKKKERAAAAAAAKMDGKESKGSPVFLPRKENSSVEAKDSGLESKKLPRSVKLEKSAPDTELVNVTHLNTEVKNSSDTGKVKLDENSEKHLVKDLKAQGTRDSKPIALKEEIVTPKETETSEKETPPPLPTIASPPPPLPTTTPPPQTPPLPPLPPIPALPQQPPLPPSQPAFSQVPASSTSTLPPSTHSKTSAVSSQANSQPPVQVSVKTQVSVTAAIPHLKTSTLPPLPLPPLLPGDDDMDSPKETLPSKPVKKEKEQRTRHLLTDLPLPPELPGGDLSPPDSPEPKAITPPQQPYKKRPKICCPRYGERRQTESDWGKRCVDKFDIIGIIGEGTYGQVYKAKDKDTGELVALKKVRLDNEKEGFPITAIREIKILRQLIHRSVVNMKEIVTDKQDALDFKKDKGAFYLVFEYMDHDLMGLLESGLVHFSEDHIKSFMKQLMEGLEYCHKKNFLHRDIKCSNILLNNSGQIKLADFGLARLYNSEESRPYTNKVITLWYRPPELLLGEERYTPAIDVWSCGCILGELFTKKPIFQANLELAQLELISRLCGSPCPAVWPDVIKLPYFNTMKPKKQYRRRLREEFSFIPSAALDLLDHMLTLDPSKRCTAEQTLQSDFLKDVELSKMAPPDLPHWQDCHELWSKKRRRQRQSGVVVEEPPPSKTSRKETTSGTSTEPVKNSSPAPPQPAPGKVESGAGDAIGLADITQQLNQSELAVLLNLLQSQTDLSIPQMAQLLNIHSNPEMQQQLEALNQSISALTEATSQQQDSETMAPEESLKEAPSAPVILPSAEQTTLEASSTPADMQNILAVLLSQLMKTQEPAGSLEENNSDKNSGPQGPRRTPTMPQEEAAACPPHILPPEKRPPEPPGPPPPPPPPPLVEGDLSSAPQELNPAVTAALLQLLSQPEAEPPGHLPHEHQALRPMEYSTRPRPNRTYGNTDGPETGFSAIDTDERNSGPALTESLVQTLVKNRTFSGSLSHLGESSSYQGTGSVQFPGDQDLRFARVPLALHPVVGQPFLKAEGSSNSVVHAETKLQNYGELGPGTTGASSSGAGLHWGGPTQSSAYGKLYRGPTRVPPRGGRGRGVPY", "T1 sequence (Q16531 2-1140 limits assumed, further chain)": "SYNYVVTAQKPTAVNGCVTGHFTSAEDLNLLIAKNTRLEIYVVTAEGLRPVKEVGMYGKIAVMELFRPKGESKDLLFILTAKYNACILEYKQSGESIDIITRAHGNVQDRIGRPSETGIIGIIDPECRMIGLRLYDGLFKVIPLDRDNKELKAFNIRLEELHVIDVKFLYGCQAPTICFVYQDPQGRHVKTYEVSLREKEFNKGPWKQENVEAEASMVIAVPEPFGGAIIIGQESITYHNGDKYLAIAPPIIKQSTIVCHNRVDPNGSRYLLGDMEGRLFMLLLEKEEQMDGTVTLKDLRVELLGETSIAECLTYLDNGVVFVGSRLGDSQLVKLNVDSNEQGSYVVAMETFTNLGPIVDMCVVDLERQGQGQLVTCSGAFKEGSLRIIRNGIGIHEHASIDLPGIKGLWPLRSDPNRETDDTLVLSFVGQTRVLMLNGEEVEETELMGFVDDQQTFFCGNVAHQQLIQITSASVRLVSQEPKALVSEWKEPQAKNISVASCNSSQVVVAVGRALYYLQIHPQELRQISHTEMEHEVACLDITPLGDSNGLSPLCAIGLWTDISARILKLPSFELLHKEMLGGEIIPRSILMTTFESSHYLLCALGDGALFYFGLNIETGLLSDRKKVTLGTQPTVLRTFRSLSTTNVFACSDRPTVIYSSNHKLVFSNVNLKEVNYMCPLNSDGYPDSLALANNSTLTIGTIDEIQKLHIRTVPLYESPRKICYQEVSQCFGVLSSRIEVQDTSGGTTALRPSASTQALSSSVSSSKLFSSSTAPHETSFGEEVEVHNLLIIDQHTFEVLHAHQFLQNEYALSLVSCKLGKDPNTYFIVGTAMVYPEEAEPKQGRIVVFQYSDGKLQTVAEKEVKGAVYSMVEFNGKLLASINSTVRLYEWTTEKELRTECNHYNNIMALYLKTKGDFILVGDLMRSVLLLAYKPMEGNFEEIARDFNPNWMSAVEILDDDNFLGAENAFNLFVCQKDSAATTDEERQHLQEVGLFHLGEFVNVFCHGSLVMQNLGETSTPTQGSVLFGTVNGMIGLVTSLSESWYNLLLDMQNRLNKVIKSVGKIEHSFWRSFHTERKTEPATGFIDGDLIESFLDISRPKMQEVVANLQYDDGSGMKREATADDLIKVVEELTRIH", "T1 sequence (Q13620 whole entry partner)": "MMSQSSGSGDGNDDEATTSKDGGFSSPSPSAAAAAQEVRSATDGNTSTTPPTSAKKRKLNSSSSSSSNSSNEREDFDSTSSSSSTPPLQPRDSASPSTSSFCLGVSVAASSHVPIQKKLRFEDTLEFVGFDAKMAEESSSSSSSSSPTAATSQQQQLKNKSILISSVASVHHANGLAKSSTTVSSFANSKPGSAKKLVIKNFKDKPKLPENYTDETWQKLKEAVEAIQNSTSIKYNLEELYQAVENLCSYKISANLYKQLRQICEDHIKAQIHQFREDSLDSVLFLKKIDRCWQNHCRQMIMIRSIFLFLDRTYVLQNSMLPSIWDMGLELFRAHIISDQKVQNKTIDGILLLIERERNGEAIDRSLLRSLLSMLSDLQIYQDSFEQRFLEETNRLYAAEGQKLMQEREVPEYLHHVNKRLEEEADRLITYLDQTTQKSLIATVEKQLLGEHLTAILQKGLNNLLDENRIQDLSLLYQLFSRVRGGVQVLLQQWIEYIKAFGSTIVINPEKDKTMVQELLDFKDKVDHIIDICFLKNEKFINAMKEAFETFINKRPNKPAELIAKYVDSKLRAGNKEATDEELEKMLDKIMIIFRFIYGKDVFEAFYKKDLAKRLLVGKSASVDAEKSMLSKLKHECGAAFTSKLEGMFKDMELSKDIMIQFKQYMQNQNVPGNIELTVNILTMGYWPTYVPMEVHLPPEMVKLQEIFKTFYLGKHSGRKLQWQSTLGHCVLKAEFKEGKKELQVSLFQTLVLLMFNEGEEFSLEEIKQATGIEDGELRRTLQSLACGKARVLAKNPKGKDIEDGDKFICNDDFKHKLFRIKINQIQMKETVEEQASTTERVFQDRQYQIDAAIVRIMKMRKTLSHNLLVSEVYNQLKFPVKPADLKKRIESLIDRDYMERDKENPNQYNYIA", "T1 sequence (P62877 whole entry partner)": "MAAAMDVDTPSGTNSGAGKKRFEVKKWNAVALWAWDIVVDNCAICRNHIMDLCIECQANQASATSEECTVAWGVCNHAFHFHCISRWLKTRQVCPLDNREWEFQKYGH", "experiment": "CCNK destabilization/degradation (expression proteomics and Western blot)", "assay_type": "cell-based", "details": "wild-type KBM7 cells", "protocol": "(§1) The hypomorphic phenotype of the mutated UBE2M allele in KBM7 cells (KBM7 UBE2M^mut cells) was assessed. In this regard, CRISPR/Cas9-induced mutation of UBE2M inactivated CRL activity including CRL4^CRBN and CRL2^VHL. […] Additionally, CCNK destabilization by all three compounds was validated via time-resolved immunoblots wherein CCNK degradation was evident after two hours (FIG. 19c).\n(§2) Subsequently, a total of 53 structurally related analogue compounds in dose-ranging viability assays in KBM7 wildtype- and UBE2M^mut cells was tested to develop a structure-activity relationship for the assayed compounds. This informed on sites amenable for derivatization of analogs (FIG. 20a), and also to the identification of structurally similar small molecules with no measurable activity that are thus suited negative controls. […] CRL activity-dependent degradation of CCNK could be rescued by pharmacologic NAE inhibition and by blocking the ubiquitin activating enzyme UBA1, particularly by pretreating the cells with 1 μM carfilzomib (Selleckchem, S2853), 1 μM MLN4924 (Selleckchem, S7109), 10 μM TAK-243 (MedChemExpress, HY-100487) or 1 μM THZ531 (MedChemExpress HY-103618) (FIG. 19d). Furthermore, treatment with the selective covalent CDK12/13 inhibitor THZ531, which binds to the ATP binding pocket of CDK12/13, rescued CCNK degradation (FIG. 19d) indicating the role of the active site of CDK12/13 for CRL activity-dependent CCNK degradation by the identified compounds (FIG. 19d).\n(§3) PBS-washed cell pellets were lysed in 50 mM Tris pH 7.9, 8M Urea and 1% CHAPS and incubated with shaking at 4° C. for at least 30 min. 20 μg of supernatants were run and transferred for detection. Antibodies used: CUL1 (Santa Cruz Biotechnology, sc-1276), CUL2 (Sigma-Aldrich, SAB2501565-100), CUL3 (Cell Signaling Technology, 2759), CUL4A (Cell Signaling Technology, 2699S), CUL4B (Proteintech, 12916-1-AP), CUL5 (Santa Cruz Biotechnology, sc-373822), UBE2M (Santa Cruz Biotechnology, sc-390064), DDB1 (Cell Signaling Technology, 5428S), CCNK (Bethyl, A301-939A), CDK12 (Cell Signaling Technology, 11973S), CDK13 (Bethyl, A301-458A), RBM39 (1:500, Santa Cruz Biotechnology sc-376531), V5 (Cell Signaling Technology, 13202), Ubiquityl-Histone H2A (K119) (Cell Signaling, 8240-20). ACTIN (Sigma-Aldrich, A5441), VINCUL1N (Santa Cruz Biotechnology, sc-25336). Secondary antibodies anti-mouse/rabbit/goat (Jackson ImmunoResearch 115-035-003, 111-035-003 and 705-035-003).\n(§4) Comparison of overall proteome-wide changes in KBM7 cells treated with IC020772.1 (2.5 μM), IC021313.2 (7 μM) or T6938051 (3.5 μM) for 5 h and 12h, using quantitative proteomics based on isobaric tagging."}, "cyclin K (CCNK)": {"biological_target": "T2, cyclin K (CCNK) (Homo sapiens, UniProt Q16531+Q9NYV4)", "T2 construct": "endogenous in cells; host or cells: KBM7 cells (WT and UBE2M/CUL4B/UBE2G1 mutant clones)", "T2 sequence (O75909 whole entry partner)": "as the sequence (O75909 whole entry partner) above", "T2 sequence (Q9NYV4 whole entry)": "as the sequence (Q9NYV4 whole entry, further chain) above", "T2 sequence (Q16531 2-1140 limits assumed)": "as the sequence (Q16531 2-1140 limits assumed, further chain) above", "T2 sequence (Q13620 whole entry partner)": "as the sequence (Q13620 whole entry partner) above", "T2 sequence (P62877 whole entry partner)": "as the sequence (P62877 whole entry partner) above", "experiment": "CCNK destabilization/degradation (expression proteomics and Western blot)", "assay_type": "cell-based", "details": "for effect on CCNK upon inactivation of DDB1, UBE2G1 and UBE2M: CRISPR-inactivated KBM7 cells", "protocol": "as §1, §2, §3, §4"}}}
{"smiles": "Cc1ccc(C(=O)N2CSCC2C(=O)N=c2[nH]cc(C)s2)o1", "note": "(stereo not shown) [Compound T6938051]", "values": [{"measurement": "CC50", "setting": "KBM7 CUL4Amut cells", "result": 2260, "unit": "nM"}, {"measurement": "CCNK destabilization", "setting": "[1]", "result": "destabilization of cyclin K (CCNK)"}, {"measurement": "effect on CCNK upon inactivation of DDB1, UBE2G1 and UBE2M", "setting": "cyclin K (CCNK)", "result": "abrogated"}]}
{"smiles": "O=C(CSc1nnc2c(n1)[nH]c1ccccc12)Nc1ccc(Cl)cn1", "note": "[IC020772.1]", "values": [{"measurement": "CC50", "setting": "KBM7 CUL4Amut cells", "result": 1220, "unit": "nM"}, {"measurement": "CCNK destabilization", "setting": "[1]", "result": "destabilization of cyclin K (CCNK)"}, {"measurement": "effect on CCNK upon inactivation of DDB1, UBE2G1 and UBE2M", "setting": "cyclin K (CCNK)", "result": "abrogated"}]}
{"smiles": "O=C(CSc1nc2ccccc2[nH]1)Nc1ccc(Cl)cn1", "note": "[IC021313.2]", "values": [{"measurement": "CC50", "setting": "KBM7 CUL4Amut cells", "result": 1560, "unit": "nM"}, {"measurement": "CCNK destabilization", "setting": "[1]", "result": "destabilization of cyclin K (CCNK)"}, {"measurement": "effect on CCNK upon inactivation of DDB1, UBE2G1 and UBE2M", "setting": "cyclin K (CCNK)", "result": "abrogated"}, {"measurement": "logFC (IC021313.2/DMSO), CCNK (O75909-3)", "setting": "cyclin K (CCNK); expression proteomics, drug vs DMSO, Table 4, log2FC < −0.3", "result": "−0.873"}]}
